Source: US12350259B2, “Methods of treating migraine” (Allergan Pharmaceuticals International Limited, priority 2021, dated 2025)

What was measured:
[1] = Atogepant-quinidine gluconate (P-gp inhibition) drug interaction study: atogepant PK; assay type: in vivo, human
Method: A phase 1, single-center, single-sequence, open-label, 2-intervention, drug-drug interaction study was conducted to evaluate the effects of P-glycoprotein (P-gp) inhibition by quinidine gluconate on pharmacokinetics (PK) and safety of atogepant. In this study, healthy adults received atogepant 60 mg on day 1, quinidine gluconate 324 mg twice daily on Day 8, quinidine gluconate 648 mg twice-daily on days 9-12, and atogepant 60 mg co-administered on day 11. Plasma samples were collected on days 1 and 11.
Atogepant PK parameters calculated were peak plasma concentration (Cmax); time to Cmax (tmax); and area under plasma concentration—time curve from time 0 to time t (AUC0-t) and infinity (AUC0-∞). PK parameters of atogepant co-administered with quinidine gluconate vs. atogepant administered alone were compared using a mixed-effects model. Statistical significance was achieved if 90% confidence intervals (Cis) for least squares geometric mean ratios (GMRs) of PK parameter values for atogepant co-administered with quinidine gluconate to atogepant administered alone were within 80%-125%. Safety assessments included clinical laboratory values, vital signs, electrocardiograms, and […] adverse events (TEAEs).

[2] = system: patients with episodic migraine; assay: Study 1 (NCT03777059): preventive treatment of episodic migraine, efficacy; assay type: in vivo, human
Method: The studies enrolled patients with at least a 1-year history of migraine with or without aura, according to the International Classification of Headache Disorders (ICHD-3) diagnostic criteria. In Study 1 (NCT03777059), 910 patients were randomized 1:1:1:1 to receive atogepant 10 mg (N=222), atogepant 30 mg (N=230), atogepant 60 mg (N=235), or placebo (N=223), once daily for 12 weeks. In Study 2 (NCT02848326), 652 patients were randomized 1:2:2:2 to receive atogepant 10 mg (N=94), atogepant 30 mg (N=185), atogepant 60 mg (N=187), or placebo (N=186), once daily for 12 weeks. In both studies, patients were allowed to use acute headache treatments (i.e., triptans, ergotamine derivatives, NSAIDs, acetaminophen, and opioids) as needed. The use of a concomitant medication that acts on the CGRP pathway was not permitted for either acute or preventive treatment of migraine. The studies excluded patients with myocardial infarction, stroke, or transient ischemic attacks within six months prior to screening. The primary efficacy endpoint was the change from baseline in mean monthly migraine days (MMD) across the 12-week treatment period. Secondary endpoints included the change from baseline in mean monthly headache days, the change from baseline in mean monthly acute medication use days, the proportion of patients achieving at least a 50% reduction from baseline in mean MMD (3-month average), the change from baseline in mean monthly Activity Impairment in Migraine-Diary (AIM-D) Performance of Daily Activities (PDA) domain scores, the change from baseline in mean monthly AIM-D Physical Impairment (PI) domain scores, across the 12 week treatment period, and the change from baseline at Week 12 for Migraine Specific Quality of Life Questionnaire version 2.1 (MSQ v2.1) Role Function-Restrictive (RFR) domain scores. The AIM-D evaluates difficulty with performance of daily activities (PDA domain) and physical impairment (PI domain) due to migraine, with scores ranging from 0 to 100. Higher scores indicate greater impact of migraine, and reductions from baseline indicate improvement. The MSQ v2.1 Role Function-Restrictive (RFR) domain score assesses how often migraine impacts function related to daily social and work-related activities over the past 4 weeks, with scores ranging from 0 to 100. Higher scores indicate lesser impact of migraine on daily activities, and increases from baseline indicate improvement.

[3] = molecular target: CYP1A2 (Homo sapiens, UniProt P05177); assay: In vitro CYP inhibition; assay type: in vitro ADME; details: clinically relevant concentrations
[4] = molecular target: CYP2C8 (Homo sapiens, UniProt P10632); assay: In vitro CYP inhibition; assay type: in vitro ADME; details: clinically relevant concentrations
[5] = system: CYP2B6; assay: CYP induction; assay type: in vitro ADME; details: clinically relevant concentrations
[6] = molecular target: P-gp (Homo sapiens, UniProt P08183); assay: Transporter substrate; assay type: in vitro ADME
[7] = co-administered with quinidine gluconate
[8] = Study 1, atogepant 10 mg once daily
[9] = Study 1, atogepant 30 mg once daily
[10] = Study 1, atogepant 60 mg once daily

Sequence of CYP2C8 (P10632 whole entry): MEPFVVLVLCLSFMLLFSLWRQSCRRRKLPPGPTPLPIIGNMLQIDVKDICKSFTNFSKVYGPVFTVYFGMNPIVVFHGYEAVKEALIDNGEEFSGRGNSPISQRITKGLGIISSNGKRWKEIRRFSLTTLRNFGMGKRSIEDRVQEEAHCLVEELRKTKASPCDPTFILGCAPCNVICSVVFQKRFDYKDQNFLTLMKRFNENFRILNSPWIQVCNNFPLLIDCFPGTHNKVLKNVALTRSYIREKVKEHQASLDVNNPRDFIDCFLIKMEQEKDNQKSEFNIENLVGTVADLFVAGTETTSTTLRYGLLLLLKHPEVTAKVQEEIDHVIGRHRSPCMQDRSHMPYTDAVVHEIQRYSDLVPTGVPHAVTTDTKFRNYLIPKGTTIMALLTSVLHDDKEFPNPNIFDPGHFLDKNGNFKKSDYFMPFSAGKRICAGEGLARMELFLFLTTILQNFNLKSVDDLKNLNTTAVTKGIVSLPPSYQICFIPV
Sequence of CYP1A2 (P05177 whole entry): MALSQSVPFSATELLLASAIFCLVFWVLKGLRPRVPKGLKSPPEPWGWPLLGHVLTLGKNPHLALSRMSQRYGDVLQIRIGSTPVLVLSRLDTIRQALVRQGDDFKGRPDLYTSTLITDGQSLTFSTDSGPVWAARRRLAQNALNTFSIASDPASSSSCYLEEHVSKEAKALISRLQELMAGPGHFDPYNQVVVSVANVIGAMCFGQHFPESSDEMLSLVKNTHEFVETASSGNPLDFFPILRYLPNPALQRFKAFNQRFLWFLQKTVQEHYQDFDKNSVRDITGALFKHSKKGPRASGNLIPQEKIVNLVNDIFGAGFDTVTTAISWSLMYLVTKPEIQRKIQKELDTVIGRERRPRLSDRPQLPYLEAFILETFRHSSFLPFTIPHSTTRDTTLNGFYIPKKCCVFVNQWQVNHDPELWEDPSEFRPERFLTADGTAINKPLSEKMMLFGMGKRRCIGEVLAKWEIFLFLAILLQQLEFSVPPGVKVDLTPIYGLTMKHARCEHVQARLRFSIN
Sequence of P-gp (P08183 whole entry): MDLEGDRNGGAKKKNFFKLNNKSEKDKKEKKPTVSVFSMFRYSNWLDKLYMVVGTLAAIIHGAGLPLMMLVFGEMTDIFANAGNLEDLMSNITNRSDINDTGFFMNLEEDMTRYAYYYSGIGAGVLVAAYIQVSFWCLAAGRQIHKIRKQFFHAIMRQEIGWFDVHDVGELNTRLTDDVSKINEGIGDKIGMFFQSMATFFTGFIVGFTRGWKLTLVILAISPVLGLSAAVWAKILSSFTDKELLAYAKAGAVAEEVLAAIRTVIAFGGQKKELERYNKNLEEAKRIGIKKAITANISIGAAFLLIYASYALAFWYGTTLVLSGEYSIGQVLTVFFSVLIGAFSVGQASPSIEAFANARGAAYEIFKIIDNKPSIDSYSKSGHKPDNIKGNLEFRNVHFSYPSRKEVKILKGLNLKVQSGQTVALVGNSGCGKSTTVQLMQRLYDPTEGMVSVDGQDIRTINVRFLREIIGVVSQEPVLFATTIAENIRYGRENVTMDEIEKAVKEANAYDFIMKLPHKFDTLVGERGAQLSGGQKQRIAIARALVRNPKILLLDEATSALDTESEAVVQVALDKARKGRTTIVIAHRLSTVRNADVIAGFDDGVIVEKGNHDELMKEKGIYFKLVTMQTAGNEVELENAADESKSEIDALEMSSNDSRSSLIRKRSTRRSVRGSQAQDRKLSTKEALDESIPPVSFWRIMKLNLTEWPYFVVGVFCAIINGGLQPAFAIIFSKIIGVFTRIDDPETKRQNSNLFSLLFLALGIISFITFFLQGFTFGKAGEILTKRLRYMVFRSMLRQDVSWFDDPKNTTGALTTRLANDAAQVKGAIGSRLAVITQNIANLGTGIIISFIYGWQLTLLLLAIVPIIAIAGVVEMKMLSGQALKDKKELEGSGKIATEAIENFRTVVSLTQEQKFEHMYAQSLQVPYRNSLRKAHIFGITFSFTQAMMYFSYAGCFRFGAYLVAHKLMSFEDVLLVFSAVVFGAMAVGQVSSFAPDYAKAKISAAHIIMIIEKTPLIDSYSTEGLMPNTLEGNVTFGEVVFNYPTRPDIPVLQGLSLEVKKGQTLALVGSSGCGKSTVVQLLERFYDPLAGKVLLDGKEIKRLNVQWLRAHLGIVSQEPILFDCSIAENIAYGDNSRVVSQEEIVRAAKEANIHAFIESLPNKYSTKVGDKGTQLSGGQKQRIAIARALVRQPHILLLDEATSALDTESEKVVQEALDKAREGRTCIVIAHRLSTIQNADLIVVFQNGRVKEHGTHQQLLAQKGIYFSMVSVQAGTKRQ

SMILES: C[C@@H]1[C@H](c2c(F)ccc(F)c2F)C[C@H](NC(=O)c2cnc3c(c2)C[C@@]2(C3)C(=O)Nc3ncccc32)C(=O)N1CC(F)(F)F [atogepant, (3′S)-N-[(3S,5S,6R)-6-methyl-2-oxo-1-(2,2,2-trifluoroethyl)-5-(2,3,6-trifluorophenyl)piperidin-3-yl]-2′-oxo-1′,2′,5,7-tetrahydrospiro[cyclopenta[b]pyridine-6,3′-pyrrolo[2,3-b]pyridine]-3-carboxamide]
- AUC increase [1, 7]: approximately 25%
- Cmax increase [1, 7]: 4.4%
- Tmax ([1]; human, plasma, with or without quinidine gluconate, read-out: atogepant median tmax): 1.5 h
- AIM-D PDA Domain across 12 weeks, difference from placebo [2, 8]: −1.2
- AIM-D PDA Domain across 12 weeks, mean change from baseline [2, 8]: −7.3
- AIM-D PI Domain across 12 weeks, difference from placebo [2, 8]: −1.1
- AIM-D PI Domain across 12 weeks, mean change from baseline [2, 8]: −5.1
- MSQ v2.1 RFR Domain at week 12, difference from placebo [2, 8]: 9.9
- MSQ v2.1 RFR Domain at week 12, mean change from baseline [2, 8]: 30.4
- Monthly Acute Medication Use Days across 12 weeks, difference from placebo [2, 8]: −1.3
- Monthly Acute Medication Use Days across 12 weeks, mean change from baseline [2, 8]: −3.7
- Monthly Headache Days across 12 weeks, difference from placebo [2, 8]: −1.4
- Monthly Headache Days across 12 weeks, mean change from baseline [2, 8]: −3.9
- Monthly Migraine Days (MMD) across 12 weeks, difference from placebo [2, 8]: −1.2
- Monthly Migraine Days (MMD) across 12 weeks, mean change from baseline [2, 8]: −3.7
- ≥50% MMD Responders across 12 weeks, % Responders [2, 8]: 56%
- ≥50% MMD Responders across 12 weeks, difference from placebo [2, 8]: 27%
- AIM-D PDA Domain across 12 weeks, difference from placebo [2, 9]: −2.5
- AIM-D PDA Domain across 12 weeks, mean change from baseline [2, 9]: −8.6
- AIM-D PI Domain across 12 weeks, difference from placebo [2, 9]: −2.0
- AIM-D PI Domain across 12 weeks, mean change from baseline [2, 9]: −6.0
- MSQ v2.1 RFR Domain at week 12, difference from placebo [2, 9]: 10.1
- MSQ v2.1 RFR Domain at week 12, mean change from baseline [2, 9]: 30.5
- Monthly Acute Medication Use Days across 12 weeks, difference from placebo [2, 9]: −1.3
- Monthly Acute Medication Use Days across 12 weeks, mean change from baseline [2, 9]: −3.7
- Monthly Headache Days across 12 weeks, difference from placebo [2, 9]: −1.5
- Monthly Headache Days across 12 weeks, mean change from baseline [2, 9]: −4.0
- Monthly Migraine Days (MMD) across 12 weeks, difference from placebo [2, 9]: −1.4
- Monthly Migraine Days (MMD) across 12 weeks, mean change from baseline [2, 9]: −3.9
- ≥50% MMD Responders across 12 weeks, % Responders [2, 9]: 59%
- ≥50% MMD Responders across 12 weeks, difference from placebo [2, 9]: 30%
- AIM-D PDA Domain across 12 weeks, difference from placebo [2, 10]: −3.3
- AIM-D PDA Domain across 12 weeks, mean change from baseline [2, 10]: −9.4
- AIM-D PI Domain across 12 weeks, difference from placebo [2, 10]: −2.5
- AIM-D PI Domain across 12 weeks, mean change from baseline [2, 10]: −6.5
- MSQ v2.1 RFR Domain at week 12, difference from placebo [2, 10]: 10.8
- MSQ v2.1 RFR Domain at week 12, mean change from baseline [2, 10]: 31.3
- Monthly Acute Medication Use Days across 12 weeks, difference from placebo [2, 10]: −1.5
- Monthly Acute Medication Use Days across 12 weeks, mean change from baseline [2, 10]: −3.9
- Monthly Headache Days across 12 weeks, difference from placebo [2, 10]: −1.7
- Monthly Headache Days across 12 weeks, mean change from baseline [2, 10]: −4.2
- Monthly Migraine Days (MMD) across 12 weeks, difference from placebo [2, 10]: −1.7
- Monthly Migraine Days (MMD) across 12 weeks, mean change from baseline [2, 10]: −4.2
- ≥50% MMD Responders across 12 weeks, % Responders [2, 10]: 61%
- ≥50% MMD Responders across 12 weeks, difference from placebo [2, 10]: 32%
- inhibition of CYP1A2 [3]: not an inhibitor
- inhibition of CYP2C8 [4]: not an inhibitor
- induction of CYP2B6 [5]: not an inducer
- substrate of P-gp [6]: substrate
